Test results from ChEMBL document CHEMBL3784916, “Synthesis and anticancer activity of novel fluorinated asiatic acid derivatives” (Eur J Med Chem, 2016).

How the values were obtained:
HT-29 = experiment: Cytotoxicity against human HT-29 cells after 72 hrs by MTT assay; format: functional, cell-based; settings: HT-29, 72 h
HeLa = experiment: Cytotoxicity against human HeLa cells after 72 hrs by MTT assay; format: functional, cell-based
Jurkat = experiment: Cytotoxicity against human Jurkat cells after 72 hrs by XTT assay; format: functional, cell-based
[1] = (§1) Cytotoxicity against human PC3 cells after 72 hrs by MTT assay; format: functional, cell-based; settings: PC-3, 72 h
PC-3 = experiment: as §1; format: functional, cell-based
MCF7 = experiment: Cytotoxicity against human MCF7 cells after 72 hrs by MTT assay; format: functional, cell-based; settings: for IC50: MCF7, 72 h
[2] = (§2) Cytotoxicity against human MIAPaCa2 cells after 72 hrs by MTT assay; format: functional, cell-based; settings: MIA PaCa-2, 72 h
MIA PaCa-2 = experiment: as §2; format: functional, cell-based
A-375 = experiment: Cytotoxicity against human A375 cells after 72 hrs by MTT assay; format: functional, cell-based; settings: for IC50: A-375, 72 h
BJ = experiment: Cytotoxicity against human BJ cells after 72 hrs by MTT assay; format: cell-based; settings: for IC50: Homo sapiens, BJ; for Activity: human, bj

SMILES	IC50 (HT-29) [µM]	IC50 (HeLa) [µM]	Activity (Jurkat)	IC50 (Jurkat) [µM]	IC50 [1] [µM]	Activity (PC-3)	Activity (MCF7)	IC50 (MCF7) [µM]	IC50 [2] [µM]	Activity (MIA PaCa-2)	Activity (A-375)	IC50 (A-375) [µM]	IC50 (BJ) [µM]	Activity (BJ)
C[C@H]1[C@H](C)CC[C@]2(C(=O)O)CC[C@]3(C)C(=CC[C@@H]4[C@@]5(C)C[C@@H](O)[C@H](O)[C@@](C)(CO)[C@@H]5CC[C@]43C)[C@H]12 [ASIATIC ACID]	64.3	52.5	Dose-dependent effect	37.2	67.2	Dose-dependent effect	Dose-dependent effect	68.5	50.7	Dose-dependent effect	Dose-dependent effect	50.3	88.7	–
CCCC(=O)OC[C@]1(C)C=C(C=O)[C@@]2(C)[C@H]1CC[C@]1(C)[C@@H]2C[C@@H](F)[C@]23OC(=O)[C@@]4(CC[C@@H](C)[C@H](C)[C@H]42)CC[C@]31C	1.29	0.95	Dose-dependent effect	–	–	Dose-dependent effect	Dose-dependent effect	1.4	1.47	Dose-dependent effect	Dose-dependent effect	1.02	–	–
C[C@H]1[C@H](C)CC[C@@]23CC[C@]4(C)[C@](OC2=O)([C@H](F)C[C@@H]2[C@@]5(C)C(C=O)=C[C@@](C)(COC(=O)c6ccccc6)[C@@H]5CC[C@]24C)[C@H]13	1.05	0.8	Dose-dependent effect	–	–	Dose-dependent effect	Dose-dependent effect	0.88	1.33	Dose-dependent effect	Dose-dependent effect	0.96	2.24	–
C[C@H]1[C@H](C)CC[C@@]23CC[C@]4(C)[C@](OC2=O)([C@H](F)C[C@@H]2[C@@]5(C)C(C=O)=C[C@@](C)(COC(=O)CCC(=O)O)[C@@H]5CC[C@]24C)[C@H]13	6.35	3.48	Dose-dependent effect	–	–	Dose-dependent effect	Dose-dependent effect	–	–	Dose-dependent effect	Dose-dependent effect	–	–	Dose-dependent effect
CCCC(=O)OC[C@@]1(C)[C@@H]2CC[C@]3(C)[C@H](C[C@@H](F)[C@]45OC(=O)[C@@]6(CC[C@@H](C)[C@H](C)[C@H]64)CC[C@]53C)[C@@]2(C)C[C@@H](OC(=O)CCC)[C@@H]1OC(=O)CCC	7.4	5.05	Dose-dependent effect	–	–	Dose-dependent effect	Dose-dependent effect	–	–	Dose-dependent effect	Dose-dependent effect	–	–	Dose-dependent effect
C[C@H]1[C@H](C)CC[C@@]23CC[C@]4(C)[C@](OC2=O)([C@H](F)C[C@@H]2[C@@]5(C)C(C=O)=C[C@@](C)(CO)[C@@H]5CC[C@]24C)[C@H]13	1.28	1.08	Dose-dependent effect	–	–	Dose-dependent effect	Dose-dependent effect	–	–	Dose-dependent effect	Dose-dependent effect	–	–	Dose-dependent effect
C[C@H]1[C@H](C)CC[C@@]23CC[C@]4(C)[C@](OC2=O)([C@H](F)C[C@@H]2[C@@]5(C)C[C@@H](O)OC[C@](C)(C=O)[C@@H]5CC[C@]24C)[C@H]13	11.2	7.4	Dose-dependent effect	–	–	Dose-dependent effect	Dose-dependent effect	–	–	Dose-dependent effect	Dose-dependent effect	–	–	Dose-dependent effect
C[C@H]1[C@H](C)CC[C@@]23CC[C@]4(C)[C@](OC2=O)([C@H](F)C[C@@H]2[C@@]5(C)CC(=O)[C@H](O)[C@@](C)(CO)[C@@H]5CC[C@]24C)[C@H]13	23.5	24.5	Dose-dependent effect	–	–	Dose-dependent effect	Dose-dependent effect	–	–	Dose-dependent effect	Dose-dependent effect	–	–	Dose-dependent effect
COC(=O)[C@H](C)N1C(=O)[C@]23CC[C@@H](C)[C@H](C)[C@H]2[C@]12[C@H](F)C[C@@H]1[C@@]4(C)C[C@@H](OC(C)=O)[C@H](OC(C)=O)[C@@](C)(COC(C)=O)[C@@H]4CC[C@@]1(C)[C@]2(C)CC3	6.37	3.97	Dose-dependent effect	–	–	Dose-dependent effect	Dose-dependent effect	–	–	Dose-dependent effect	Dose-dependent effect	–	–	Dose-dependent effect
COC(=O)CN1C(=O)[C@]23CC[C@@H](C)[C@H](C)[C@H]2[C@]12[C@H](F)C[C@@H]1[C@@]4(C)C[C@@H](OC(C)=O)[C@H](OC(C)=O)[C@@](C)(COC(C)=O)[C@@H]4CC[C@@]1(C)[C@]2(C)CC3	9.23	2.72	Dose-dependent effect	–	–	Dose-dependent effect	Dose-dependent effect	–	–	Dose-dependent effect	Dose-dependent effect	–	–	Dose-dependent effect
